Structures can show the parent of a compound that is named as a salt.
Legend:
[1] = test system: differentiated keratinocytes; experiment: Microarray gene expression in differentiated primary human epidermal keratinocytes dosed with piroctone olamine; type: cell-based; conditions: 7.5 µM, 24 hours
Description: Primary human epidermal keratinocytes were obtained from Lonza. Cells were cultured in monolayer in KGM-Gold medium. For the experiment keratinocytes were differentiated by incubating for five days in KGM-Gold medium supplemented with 1.2 mM calcium chloride. Piroctone olamine was supplied by Sigma. Differentiated keratinocyte cultures were dosed with 7.5 µM piroctone olamine and 0.1% ethanol (Group 1, n=4), or with 0.1% ethanol only (Group 2, n=4) and incubated for 24 hours. Cells were then lysed in RLT buffer and subjected to RNA extraction using Qiagen RNeasy Micro Kit according to manufacturer’s instructions. The levels of gene expression were determined using Agilent SurePrint G3 Human Gene Expression 8x60k v3 Microarrays in conjunction with Agilent SureHyb hybridisation and SureScan High-Resolution scanning technology, in accordance with manufacturer’s protocol. Microarray data processing and statistical analysis was carried out in Agilent GeneSpring GX14 software. To identify differentially expressed genes in piroctone olamine treated cultures (Group 1) compared to vehicle control cultures (Group 2), t-test was applied (p≤0.05) with or without Benjamini-Hochberg false discovery rate correction (FDR≤0.05).

[2] = test system: ex vivo human skin explants; experiment: RNA sequencing gene expression in NativeSkin ex vivo human skin explants treated topically with piroctone olamine; type: cell-based; conditions: 24 hours
Description: Human ex vivo skin model production and piroctone olamine treatment were conducted by Genoskin (France). NativeSkin models of 15 mm diameter ex vivo human skin explants with silicon rings were produced from three donors and cultured in NativeSkin culture medium under 5% CO2 humidified atmosphere in 37° C. Skin explants were treated topically with 50 ul of solution containing 30 uM piroctone olamine in PBS with 1% ethanol (Group 1, n=3), or control PBS solution containing 1% ethanol (Group 2, n=3), and were incubated for 24 hours. Following one day of topical treatment, piroctone olamine and control solutions were removed using cotton swabs and each model was unmolded from silicon ring and re-punch at 12 mm diameter. Half of each skin biopsy was processed for RNA using OMNI-TH Rotor Stator tissue homogeniser and Qiagen RNeasy Fibrous Tissue RNA Mini Kit according to manufacturer’s instructions. RNA sequencing was used for gene expression analysis. Lexogen QuantSeq3′ FWD libraries were prepared from RNA samples and sequenced via single read (1x75 bp) performed using NextSeq 500/550 Mid-Output Kit on the NextSeq 500 Illumina platform. FASTQ data files were then uploaded to the BlueBee genomic platform and read-trimming, alignment, and read count were performed using QuantSeq data processing pipeline. Differential gene expression analysis for Group 1/Group 2 comparison was run in Bluebee genomic platform using QuantSeq DE pipeline (FDR corrected p≤0.05).

[3] = vs 0.1% ethanol control, Comeodesmosome formation
[4] = vs 0.1% ethanol control, Cornified envelop formation
[5] = vs 0.1% ethanol control, Tight junction formation
[6] = 30 uM topical in PBS with 1% ethanol, vs control, Tight junction formation

Cc1cc(CC(C)CC(C)(C)C)n(O)c(=O)c1 (stereo not shown) [piroctone olamine, 1-hydroxy-4-methyl-6-(2,4,4-trimethylpentyl)-2(1H) pyridinone monoethanolamine salt]
gene expression of epidermal barrier biomarkers compared to control (in words) ([1]; differentiated keratinocytes): clear increase in gene expression | Fold Change (Group ⅟Group 2) gene expression, Desmocolin 2 (DSC2) [1, 3]: 2.49 | Fold Change (Group ⅟Group 2) gene expression, Desmoglein 4 (DSG4) [1, 3]: 2.44 | Fold Change (Group ⅟Group 2) gene expression, Plakophilin 1 (PKP1) [1, 3]: 1.75 | Fold Change (Group ⅟Group 2) gene expression, Comeodesmosin (CDSN) ([1]; vs 0.1% ethanol control, Comeodesmosome formation, not significant): 1.20 | Fold Change (Group ⅟Group 2) gene expression, Involucrin (IVL) [1, 4]: 1.40 | Fold Change (Group ⅟Group 2) gene expression, Late cornified envelope 3A (LCE3A) [1, 4]: 2.58 | Fold Change (Group ⅟Group 2) gene expression, Late cornified envelope 3B (LCE3B) [1, 4]: 1.67 | Fold Change (Group ⅟Group 2) gene expression, Late cornified envelope 3C (LCE3C) [1, 4]: 2.71 | Fold Change (Group ⅟Group 2) gene expression, Small proline-rich protein 2D (SPRR2D) [1, 4]: 1.52 | Fold Change (Group ⅟Group 2) gene expression, Claudin 4 (CLDN4) [1, 5]: 1.76 | Fold Change (Group ⅟Group 2) gene expression, Claudin 7 (CLDN7) [1, 5]: 1.65 | Fold Change (Group ⅟Group 2) gene expression, Claudin 17 (CLDN17) [1, 5]: 2.99 | Fold Change (Group ⅟Group 2) gene expression, Claudin 25 (CLDN25) [1, 5]: 2.05 | Fold Change (Group ⅟Group 2) gene expression, Zona Occludens 1 (ZO1 (TJP1)) ([1]; vs 0.1% ethanol control, Tight junction formation, not significant): 1.3 | Fold Change (Group 1/Group 2) gene expression, Involucrin (IVL) ([2]; 30 uM topical in PBS with 1% ethanol, vs control, Cornified envelop formation): 2.7 | Fold Change (Group 1/Group 2) gene expression, Claudin 1 (CLDN 1) [2, 6]: 2.1 | Fold Change (Group 1/Group 2) gene expression, Zona Occludens 2 (ZO2 (TJP2)) [2, 6]: 3.5 | gene expression of epidermal barrier biomarkers compared to control (in words) ([2]; 30 uM topical, human skin explants): increase in gene expression
